Assays:
[1] = Cyclic voltammetry of the complexes in aqueous buffer (PBS); type: physicochemical; settings: for EOX: arene chromium tricarbonyl complexes, aqueous electrochemistry; for potential of the voltammetric wave: manganese complexes in aqueous buffer (PBS)
[2] = Cyclic voltammetry of screen-printed carbon electrodes containing the complex; type: physicochemical; settings: for oxidation wave potential: screen-printed carbon electrodes, scan rates 50 and 100 mV/s
Method: (§1) Screen-printed electrodes incorporating Compound 6 were produced from an organic carbon ink containing the chromium complex at a level of 3.5 mg/g ink. FIG. 2a comprises cyclic voltammograms of electrodes containing the chromium complex Compound 6 at 50 mV/s and 0.2 μA/cm in PBS, and FIG. 2b the catalytic wave upon addition of 100 μl glucose oxidase recorded at 20 mV/s and 0.5 μA/cm. […] From FIG. 2b, it is seen that GOD mediation occurs on applying mixtures of enzyme and glucose to the electrodes, with small catalytic currents of about 1 μA.
Further work with the dithiocarbamate complexes Compounds 10 to 12 was carried out with screen-printed carbon electrodes produced from carbon inks mixed with each of the complexes. […] Catalytic currents in the region of 4 μA were recorded in the presence of GOD and glucose. Variable but increased currents of up to 29 μA were obtained with 0.1 M glucose when the enzyme was confined in the carbon electrode with the mediator, see FIG. 9.

[3] = molecular target: T1, glucose oxidase (GOD) (Aspergillus niger, UniProt P13006); assay: Mediation to glucose oxidase with screen-printed carbon electrodes containing the mediator; type: biochemical
Method: (§2) The phosphate buffer solution (PBS) of 0.15 M phosphate (with 0.2 M sodium chloride as supporting electrolyte), pH 7.0, containing 0.1 M glucose was prepared using Analar reagents from Merck BDH. The solution was stored overnight at 4° C. prior to use to allow equilibration of the α- and β-anomers. Glucose oxidase (EC 1.1.3.4 from Aspergillus niger) was supplied by Sturge Enzymes. Horseradish peroxidase was obtained from Biozyme.
as §1
Further work with the dithiocarbamate complexes Compounds 10 to 12 was carried out with screen-printed carbon electrodes produced from carbon inks mixed with each of the complexes. […] Catalytic currents in the region of 4 μA were recorded in the presence of GOD and glucose. […]

[4] = cited from earlier work
[5] = molecular target: T1, glucose oxidase (GOD); assay: Mediation to glucose oxidase in solution (catalytic wave, enzyme titration in 0.1 M glucose/PBS); type: biochemical
[6] = molecular target: T2, Horseradish peroxidase (HRP) (Armoracia rusticana, UniProt P00433); assay: Mediation to horseradish peroxidase, rotating ring-disk voltammetry; type: biochemical; settings: mediator 0.5 mM, HRP 280 U, ring poised at -100 mV, disk scanned -100 to -600 mV
T2 sequence (P00433 31-338): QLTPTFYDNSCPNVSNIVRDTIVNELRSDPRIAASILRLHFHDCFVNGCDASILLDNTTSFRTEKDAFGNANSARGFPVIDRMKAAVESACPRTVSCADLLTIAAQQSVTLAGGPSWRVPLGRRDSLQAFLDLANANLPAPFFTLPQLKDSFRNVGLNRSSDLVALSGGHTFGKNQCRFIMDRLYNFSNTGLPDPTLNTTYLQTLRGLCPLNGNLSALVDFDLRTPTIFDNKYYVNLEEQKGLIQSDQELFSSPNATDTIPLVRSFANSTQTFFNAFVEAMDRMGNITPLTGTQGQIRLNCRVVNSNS
Method: as §2
The ability of the β-cyclodextrin adduct of the manganese complex Compound 10 to mediate with […] (HRP) was assessed by comparing it with 1,1'-dimethylferrocene ethanolamine using rotating ring-disk voltammetry according to a literature method (Anal. Chem., 62 (1990) 2429). Experiments were carded out using a glass cell (14 ml capacity) containing a platinum counter electrode with a calomel reference electrode. A gold-gold ring-disk electrode, rotated at 4 Hz, was immersed in a phosphate-buffered saline solution of the mediator (0.5 mM) containing HRP (280 U). The catalytic ring current was then measured while poising the ring electrode at -100 mV and scanning the disk electrode from -100 to -600mV to generate hydrogen peroxide.

[7] = pH 7
[8] = molecular target: T1, glucose oxidase (GOD); settings: literature value (Anal. Chem., 56 (1984) 667); cited from earlier work
[9] = Solubility / stability in aqueous buffer; settings: aqueous buffer / water
[10] = complex in aqueous buffer (PBS)
[11] = 0.5 mM in PBS with added β-cd (0.5-5.0 mM)

T1 sequence (P13006 17-605): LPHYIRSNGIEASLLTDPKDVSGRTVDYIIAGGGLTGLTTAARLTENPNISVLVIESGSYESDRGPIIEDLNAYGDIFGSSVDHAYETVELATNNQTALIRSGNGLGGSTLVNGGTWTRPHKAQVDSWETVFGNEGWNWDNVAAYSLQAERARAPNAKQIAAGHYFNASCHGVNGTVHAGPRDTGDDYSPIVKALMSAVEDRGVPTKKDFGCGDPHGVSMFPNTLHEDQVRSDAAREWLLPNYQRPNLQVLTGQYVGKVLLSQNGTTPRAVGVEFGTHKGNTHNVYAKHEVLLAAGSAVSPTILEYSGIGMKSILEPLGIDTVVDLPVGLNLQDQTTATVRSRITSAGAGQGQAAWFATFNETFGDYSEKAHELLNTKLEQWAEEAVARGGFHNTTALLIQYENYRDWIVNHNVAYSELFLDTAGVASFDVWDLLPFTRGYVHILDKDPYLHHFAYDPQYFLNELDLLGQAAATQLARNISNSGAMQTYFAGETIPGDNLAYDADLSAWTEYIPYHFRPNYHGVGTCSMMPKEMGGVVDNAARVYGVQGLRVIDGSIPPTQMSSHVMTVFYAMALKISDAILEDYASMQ

Question: What does the source list for `Cc1c(C)c(N)c(C)c(C)c1N.[C-]#[O+].[C-]#[O+].[C-]#[O+].[Cr]` [Compound 6]?
Answer: EOX [1]: +40 mV; reversibility of the voltammetric wave [1, 10]: reversible wave; mid-point potential ([2]; screen-printed electrodes, 3.5 mg complex/g ink, PBS applied): -15 mV; reversibility of the voltammetric wave ([2]; screen-printed electrodes, PBS applied): reversible wave; catalytic current ([3]; mixtures of GOD and glucose applied to screen-printed electrodes containing the mediator): about 1 μA

Question: Which EOX [1] does the source give for `Nc1ccc(N)cc1.[C-]#[O+].[C-]#[O+].[C-]#[O+].[Cr]` [Compound 4] here?
Answer: The EOX was “+135 mV”.

Question: For `OCCN(CCO)c1ccccc1.[C-]#[O+].[C-]#[O+].[C-]#[O+].[Cr]` [Compound 3], which EOX [1] is on record?
Answer: The EOX was “+250 mV”.

Question: Which “reversibility of the voltammetric wave” value [1, 10] does the source give for [MeCpMn(NO)(CN)2 ]Na [Compound 13] here?
Answer: The value was “reversible wave”.

Question: And the “potential of the voltammetric wave” value [1]?
Answer: Its value is “+440 mV”.

Question: Which results are given for [MeCpMn(NO)(bipy)]PF6 [Compound 14]?
Answer: reversibility of the voltammetric wave [1, 10]: irreversible electrochemistry; potential of the voltammetric wave [1]: about +600 mV

Question: Which “oxidation potential, more positive than ferrocene” value ([4]; in acetonitrile, relative to ferrocene) does the source give for `[C-]#[O+].[C-]#[O+].[C-]#[O+].[Mn].[c-]1[c-][c-][cH-][c-]1` [Cyclopentadienyl manganese tricarbonyl] here?
Answer: Its value is roughly 1.2 V.

Question: For [MeCpMn(NO)(S2 CNEt2)] [Compound 11], which oxidation wave potential [2] is on record?
Answer: Its oxidation wave potential is “+300 mV”.

Question: For `CN(C)c1ccccc1.[C-]#[O+].[C-]#[O+].[C-]#[O+].[Cr]` [Compound 1], which EOX [1] is on record?
Answer: Its EOX is “+250 mV”.

Question: For [MeCpMn(NO)(S2 CNMe2)]β-cyclodextrin, which ΔEp ([1]; 0.1 M glucose/PBS) is on record?
Answer: Its ΔEp is 70 mV.

Question: And the “reversibility of the voltammetric wave” value [1, 10]?
Answer: The value was “reversible wave”.

Question: And the “potential of the voltammetric wave” value [1]?
Answer: The value was “+255 mV”.

Question: What about the “icat (catalytic wave)” value ([5]; upon addition of GOD and glucose, 0.1 M glucose/PBS) of the same compound?
Answer: Its value is 9.7 μA.

Question: What about the “catalytic ring current, comparison of mediators” value [6] of the same compound?
Answer: Its value is “identical catalytic currents”.

Question: And the “solubility in PBS” value [7]?
Answer: Its value is “at least 0.5 mM”.

Question: For ferrocene monocarboxylic acid, which “second order rate constant for the oxidation of reduced GOD” value [8] is on record?
Answer: Its value is 200000 M⁻¹ s⁻¹.

Question: With `Nc1cc(N)cc(N)c1.[C-]#[O+].[C-]#[O+].[C-]#[O+].[Cr]` [Compound 7] as the compound, how does the EOX [1] read?
Answer: Its EOX is “+50 mV”.

Question: With [MeCpMn(NO)(CO)2 ]PF6 [Compound 9] as the compound, how does the “oxidation potential of the species formed by decomposition” value ([1]; aqueous buffer, irreversibly oxidized) read?
Answer: Its value is “+230 mV”.

Question: What does the source list for [MeCpMn(NO)(S2 CNMe2)] [Compound 10]?
Answer: oxidation wave potential [2]: +240 mV; catalytic current ([3]; 0.1 M glucose, enzyme confined in the carbon electrode with the mediator): up to 29 μA

Question: With `Cc1cc[cH-]c1.[C-]#[O+].[C-]#[O+].[C-]#[O+].[Mn]` [Compound 8, (methylcyclopentadienyl)manganese tricarbonyl] as the compound, how does the “second order rate coefficient for the oxidation of reduced GOD” value ([5]; 0 to 25 μl GOD titrated into mediator in 0.1 M glucose/PBS, from icat versus [GOD]^1/2) read?
Answer: The value was 210000 M⁻¹ s⁻¹.

Question: For `COc1ccc(N)c(OC)c1.[C-]#[O+].[C-]#[O+].[C-]#[O+].[Cr]` [Compound 5], which EOX [1] is on record?
Answer: The EOX was “+170 mV”.

Question: With “1,1'-dimethylferrocene ethanolamine [reference compound]” as the compound, how does the “catalytic ring current, comparison of mediators” value [6] read?
Answer: Its value is “identical catalytic currents”.

Question: With “[MeCpMn(NO){(SCCN)2 }][NEt4 ] [Compound 16]” as the compound, how does the E1/2 [1, 11] read?
Answer: The E1/2 was “+5 mV”.

Question: What about the ΔEp [1, 11] of the same compound?
Answer: The ΔEp was 65 mV.

Question: And the “reversibility of the voltammetric wave” value ([1]; 0.5 mM in buffer with added β-cd (0.5-5.0 mM))?
Answer: Its value is “reversible wave”.

Question: And the Eox ([1]; 0.6 mM in PBS, 50 mV/s)?
Answer: The Eox was -25 mV.

Question: Which “reversibility of the voltammetric wave” value [1, 10] does the source give for [MeCpMn(NO)(phen)]PF6 [Compound 15] here?
Answer: The value was “irreversible electrochemistry”.

Question: And the “potential of the voltammetric wave” value [1]?
Answer: The value was “about +600 mV”.

Question: Which results are given for `[C-]#[O+].[C-]#[O+].[C-]#[O+].[Cr].c1ccccc1` [benzene chromium tricarbonyl]?
Answer: half wave potential ([4]; in dichloromethane): +710 mV vs SCE; aqueous solubility (in words) [9]: negligible solubility in buffer
